A short description of data set [1]: Inhibition of Escherichia coli DNA topoisomerase-IV relaxation plate assay.
The nature of data set [2]: Metabolic stability in human liver microsomes assessed as half life at 1 uM preincubated for 10 mins followed by NADPH addition and measured after 5 to 60 mins by LC-MS/MS analysis. The settings on record: time 15-70 min. The class given is ADME, Microsome. (In general: Microsomes from liver hold many membrane-bound enzymes, among them those of drug oxidation.)
Data set [3] deals with Staphylococcus aureus. The experiment in a line: Antibacterial against vancomycin-intermediate Staphylococcus aureus ATCC 700699 assessed as inhibition of bacterial growth by broth dilution method. The class given is functional.
The test system of data set [4] is MCF7. The experiment in a line: Cytotoxicity against human MCF7 cells assessed as cell viability at 50 uM incubated for 72 hrs by CellTiter 96 aqueous one solution reagent based MTS assay relative to control. The settings on record: read-out: Activity. It is filed as functional.
Data set [5] has as its system Enterococcus faecalis. Kind of data set: Antibacterial activity against Enterococcus faecalis ATCC 29212 assessed as inhibition of bacterial growth by broth microdilution method. It is filed as functional. In general terms: Dilution methods test growth across graded concentrations, often in twofold steps.
The subject of data set [6] is Staphylococcus aureus. The experiment in a line: Antibacterial activity against Staphylococcus aureus ATCC 29213 assessed as inhibition of bacterial growth by broth microdilution method. The class given is functional.
A short description of data set [7]: Metabolic stability in human liver microsomes assessed as intrinsic clearance at 1 uM preincubated for 10 mins followed by NADPH addition and measured after 5 to 60 mins by LC-MS/MS analysis. To be noted: time 15-70 min, read-out: CLH. It is filed as ADME, Microsome.
The subject of data set [8] is Klebsiella pneumoniae. The experiment in a line: Antibacterial activity against Klebsiella pneumoniae ATCC 10031 assessed as inhibition of bacterial growth by broth microdilution method. The class given is functional.
Data set [9] deals with DNA gyrase (Escherichia coli, UniProt P0AES4+P0AES6). The experiment in a line: Inhibition of Escherichia coli DNA gyrase by supercoiling plate assay. The class given is protein-complex assay.
Data set [10] deals with Acinetobacter baumannii. The experiment in a line: Antibacterial activity against Acinetobacter baumannii ATCC 17978 assessed as inhibition of bacterial growth by broth microdilution method. The class given is functional.
In data set [11] the test system is Pseudomonas aeruginosa. The experiment in a line: Antibacterial activity against Pseudomonas aeruginosa ATCC 27853 assessed as inhibition of bacterial growth by broth microdilution metho. It is filed as functional.
Data set [12] in a line: Metabolic stability in mouse liver microsomes assessed as half life at 1 uM preincubated for 10 mins followed by NADPH addition and measured after 5 to 60 mins by LC-MS/MS analysis. The class given is ADME, Microsome. To be noted: time 15-70 min.
In data set [13] the test system is Staphylococcus aureus. The experiment in a line: Antibacterial against methicillin resistant Staphylococcus aureus ATCC 43300 assessed as inhibition of bacterial growth by broth microdilution method. It is filed as functional. The settings on record: time 24 hrs.
The subject of data set [14] is Escherichia coli. Kind of data set: Antibacterial activity against Escherichia coli ATCC 25922 assessed as inhibition of bacterial growth by broth microdilution method. It is filed as functional.
The test system of data set [15] is Enterobacter cloacae. The experiment in a line: Antibacterial activity against Enterobacter cloacae subsp. cloacae ATCC 13047 assessed as inhibition of bacterial growth by broth microdilution method. It is filed as functional.
Data set [16] concerns the target DNA topoisomerase 2-alpha (Homo sapiens, UniProt P11388). The experiment in a line: Inhibition of human DNA topoisomerase 2-alpha using linear pBR322 as substrate assessed as conversion of NADH to NAD+ by measuring residual activity at 100 uM preincubated for 10 to 15 mins in presence of pyruvate kinase/lactate dehydrogenase mix followed by ATP addition and measured after 30 mins by ATPase assay relative to control. To be noted: time 40-55 min.

A short description of data set [17]: Metabolic stability in mouse liver microsomes assessed as intrinsic clearance at 1 uM preincubated for 10 mins followed by NADPH addition and measured after 5 to 60 mins by LC-MS/MS analysis. The class given is ADME, Microsome. To be noted: time 15-70 min, read-out: CLH.
Data set [18] relates to Enterococcus faecium. Kind of data set: Antibacterial activity against vancomycin-resistant Enterococcus faecium ATCC 700221 assessed as inhibition of bacterial growth by broth microdilution method. The class given is functional.
Data set [19] concerns Escherichia coli. The experiment in a line: Inhibition of Escherichia coli DNA topoisomerase-IV assessed as residual activity at 10 uM by relaxation plate assay relative to control.
Data set [20] addresses DNA gyrase (Staphylococcus aureus, UniProt P0A0K8+P20831). Kind of data set: Inhibition of Staphylococcus aureus DNA gyrase by supercoiling plate assay. The class given is protein-complex assay.

In brackets after ≈: the same amount, converted by molar mass.

Sequence of DNA topoisomerase 2-alpha (P11388 whole entry): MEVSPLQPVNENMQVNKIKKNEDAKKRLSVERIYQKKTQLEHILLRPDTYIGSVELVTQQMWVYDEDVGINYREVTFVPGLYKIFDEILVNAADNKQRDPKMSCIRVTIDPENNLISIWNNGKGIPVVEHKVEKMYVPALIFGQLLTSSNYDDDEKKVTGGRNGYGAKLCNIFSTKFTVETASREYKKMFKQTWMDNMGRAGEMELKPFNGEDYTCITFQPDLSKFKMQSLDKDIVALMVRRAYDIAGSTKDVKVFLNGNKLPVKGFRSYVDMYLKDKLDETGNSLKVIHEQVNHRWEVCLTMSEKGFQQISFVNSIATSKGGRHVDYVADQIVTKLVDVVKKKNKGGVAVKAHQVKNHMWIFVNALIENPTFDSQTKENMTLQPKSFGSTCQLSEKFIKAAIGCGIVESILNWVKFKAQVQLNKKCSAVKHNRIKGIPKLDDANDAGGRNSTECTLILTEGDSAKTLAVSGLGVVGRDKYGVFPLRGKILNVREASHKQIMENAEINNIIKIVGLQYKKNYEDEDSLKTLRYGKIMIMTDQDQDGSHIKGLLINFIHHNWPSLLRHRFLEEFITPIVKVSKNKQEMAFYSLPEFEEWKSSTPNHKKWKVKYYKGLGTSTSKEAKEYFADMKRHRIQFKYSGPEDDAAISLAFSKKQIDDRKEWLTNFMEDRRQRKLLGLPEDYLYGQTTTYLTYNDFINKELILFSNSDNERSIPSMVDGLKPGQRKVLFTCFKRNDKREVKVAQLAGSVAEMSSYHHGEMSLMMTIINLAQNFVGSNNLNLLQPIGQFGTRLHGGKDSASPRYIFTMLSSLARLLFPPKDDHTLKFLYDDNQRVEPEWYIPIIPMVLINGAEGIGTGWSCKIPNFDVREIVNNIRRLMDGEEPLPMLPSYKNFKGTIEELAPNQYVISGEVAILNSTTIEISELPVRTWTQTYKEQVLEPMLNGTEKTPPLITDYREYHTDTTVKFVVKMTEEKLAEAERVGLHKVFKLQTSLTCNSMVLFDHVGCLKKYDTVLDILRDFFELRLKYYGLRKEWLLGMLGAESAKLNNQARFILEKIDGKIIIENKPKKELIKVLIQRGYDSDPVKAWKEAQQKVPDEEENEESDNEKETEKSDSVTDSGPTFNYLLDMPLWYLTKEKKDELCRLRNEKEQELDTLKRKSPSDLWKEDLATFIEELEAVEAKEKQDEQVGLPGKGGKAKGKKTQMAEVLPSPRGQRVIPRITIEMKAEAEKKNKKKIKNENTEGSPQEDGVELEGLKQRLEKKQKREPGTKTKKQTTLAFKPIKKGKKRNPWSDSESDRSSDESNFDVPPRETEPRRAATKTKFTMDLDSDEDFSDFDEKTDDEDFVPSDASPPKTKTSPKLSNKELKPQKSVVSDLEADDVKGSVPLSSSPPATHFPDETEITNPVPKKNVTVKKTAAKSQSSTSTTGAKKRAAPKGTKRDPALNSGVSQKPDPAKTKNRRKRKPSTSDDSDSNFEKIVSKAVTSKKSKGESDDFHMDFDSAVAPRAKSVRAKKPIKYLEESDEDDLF
Sequence of DNA gyrase (Staphylococcus aureus, UniProt P0A0K8+P20831) (P0A0K8 whole entry): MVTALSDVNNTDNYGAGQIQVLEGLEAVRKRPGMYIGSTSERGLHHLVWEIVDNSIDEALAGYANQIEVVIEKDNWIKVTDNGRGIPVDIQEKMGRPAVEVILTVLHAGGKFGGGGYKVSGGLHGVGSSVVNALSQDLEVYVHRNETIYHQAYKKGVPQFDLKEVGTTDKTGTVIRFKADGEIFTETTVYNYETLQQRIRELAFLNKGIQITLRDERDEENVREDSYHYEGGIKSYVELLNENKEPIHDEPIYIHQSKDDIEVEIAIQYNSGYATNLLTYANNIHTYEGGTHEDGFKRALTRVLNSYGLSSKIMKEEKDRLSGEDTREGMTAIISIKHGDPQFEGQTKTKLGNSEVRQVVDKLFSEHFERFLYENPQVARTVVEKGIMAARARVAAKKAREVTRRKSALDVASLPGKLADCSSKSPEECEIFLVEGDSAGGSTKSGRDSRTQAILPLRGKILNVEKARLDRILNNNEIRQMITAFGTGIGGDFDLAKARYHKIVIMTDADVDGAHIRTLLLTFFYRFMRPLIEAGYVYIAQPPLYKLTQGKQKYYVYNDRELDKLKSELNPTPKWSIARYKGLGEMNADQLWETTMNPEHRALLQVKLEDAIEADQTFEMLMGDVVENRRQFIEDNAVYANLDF
Sequence of DNA gyrase (Staphylococcus aureus, UniProt P0A0K8+P20831) (P20831 whole entry): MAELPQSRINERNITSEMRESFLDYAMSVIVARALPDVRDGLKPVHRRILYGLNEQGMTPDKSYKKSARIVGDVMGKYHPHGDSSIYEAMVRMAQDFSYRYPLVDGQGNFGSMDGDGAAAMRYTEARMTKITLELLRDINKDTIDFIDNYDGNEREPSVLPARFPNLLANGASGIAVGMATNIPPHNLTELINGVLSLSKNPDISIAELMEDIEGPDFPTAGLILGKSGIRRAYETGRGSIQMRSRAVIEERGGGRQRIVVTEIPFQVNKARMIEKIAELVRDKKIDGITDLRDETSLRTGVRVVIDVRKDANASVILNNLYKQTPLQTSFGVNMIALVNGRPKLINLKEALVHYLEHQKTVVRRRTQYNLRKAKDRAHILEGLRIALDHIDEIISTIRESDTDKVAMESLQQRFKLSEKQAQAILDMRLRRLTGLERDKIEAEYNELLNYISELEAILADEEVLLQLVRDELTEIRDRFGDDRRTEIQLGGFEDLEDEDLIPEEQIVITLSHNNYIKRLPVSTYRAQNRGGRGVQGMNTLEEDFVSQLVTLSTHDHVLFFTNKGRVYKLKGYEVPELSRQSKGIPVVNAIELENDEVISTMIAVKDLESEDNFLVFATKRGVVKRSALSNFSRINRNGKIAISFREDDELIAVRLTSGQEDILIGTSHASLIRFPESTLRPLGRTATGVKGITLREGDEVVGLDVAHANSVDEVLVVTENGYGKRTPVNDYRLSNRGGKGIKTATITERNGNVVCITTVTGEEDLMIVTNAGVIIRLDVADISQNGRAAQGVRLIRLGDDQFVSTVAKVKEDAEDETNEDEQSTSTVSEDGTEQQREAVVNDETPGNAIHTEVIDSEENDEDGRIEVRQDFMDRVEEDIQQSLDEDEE

The term IC50 denotes the concentration needed to halve the response being measured. Broadly, the half-life is how long it takes for the measured level to halve. As a reminder, the MIC is the least concentration at which growth counts as inhibited. Regarding `Cc1[nH]c(C(=O)Nc2ccc(-c3noc(=O)[nH]3)cc2N2CCCC2)c(Cl)c1Cl`, the results for the half-maximal inhibitory concentration (IC50) in [1] and in data set [9] were 2.41 µM and 0.0126 µM, respectively. Further, the figures for the half-life at 1 µM in data set [2] and in data set [12] were 1.31 h and 2.1 h, respectively. For the same compound, the minimum inhibitory concentration (MIC) in [3] was under 0.031 µg/mL; in data set [5] it was under 0.031 µg/mL; in [6] it was over 64 µg/mL; in data set [8], over 64 µg/mL; in data set [10], over 64 µg/mL; in data set [11], over 64 µg/mL. For the same compound, the minimal inhibitory concentration (MIC) in data set [13] is 0.5 µg/mL (≈ 1.18 µM); in [14], over 64 µg/mL; in data set [15], over 64 µg/mL; in data set [18], 0.063 µg/mL (≈ 0.149 µM). Moreover, the viability at 50 µM in data set [4] was 119%. Also, the microsomal CLint at 1 µM in data set [7] came to 17.6 µL/min/mg; in data set [17], 11 µL/min/mg. In data set [16], the Activity stood at 99%.

For `Cc1[nH]c(C(=O)Nc2ccc(-n3nn[nH]c3=O)cc2N2CC[C@H](N)C2)c(Cl)c1Cl.Cl`, the MIC is 64 µg/mL in data set [3]; 64 µg/mL in data set [5]; over 32 µg/mL in [6]; over 32 µg/mL in data set [8]; over 32 µg/mL in data set [10]; over 32 µg/mL in data set [11]. Also, the MIC in data set [13], in data set [14], in data set [15] and in [18] was over 32 µg/mL each time. Also, the IC50 in data set [9] is 0.0049 µM; in [20] it was 0.121 µM. Moreover, the Activity in data set [19] worked out at 26%; in data set [16], 108%.

`Cc1[nH]c(C(=O)Nc2ccc(-c3noc(=O)[nH]3)cc2N2CCNCC2)c(Cl)c1Cl.Cl`: the IC50 in data set [1] was 3.15 µM; in data set [9], 0.00607 µM. The MIC in data set [3], in data set [5], in data set [6], in data set [8], in data set [10] and in [11] was over 64 µg/mL each time. For the same compound, the MIC in data set [13], in [14], in data set [15] and in data set [18] was over 64 µg/mL throughout. In data set [16], the Activity is 101%.

Take `Cc1[nH]c(C(=O)Nc2ccc(-c3noc(=O)[nH]3)cc2N2CCN(c3ccccc3)CC2)c(Cl)c1Cl`: the half-life at 1 µM in data set [2] and in [12] was over 2.42 h each time. Besides, the MIC in data set [3] is 2 µg/mL (≈ 3.9 µM); in [5], 0.125 µg/mL (≈ 0.243 µM); in data set [6] it was 4 µg/mL (≈ 7.79 µM); in [8], over 64 µg/mL; in [10] it was over 64 µg/mL; in [11], over 64 µg/mL. In addition, the minimal inhibitory concentration (MIC) in data set [13] was 0.063 µg/mL (≈ 0.123 µM); in data set [14], over 64 µg/mL; in [15], over 64 µg/mL; in data set [18], 4 µg/mL (≈ 7.79 µM). The viability at 50 µM in data set [4] turned out to be 68%. Moreover, the microsomal CLint at 1 µM in [7] and in [17] was under 9.6 µL/min/mg each time. This compound also gave an IC50 in data set [9] of 0.109 µM. Also, the Activity in data set [19] was 71%; in data set [16], 98%.

Regarding `O=C(O)Cc1ccccc1Nc1c(Cl)cccc1Cl` [DICLOFENAC], the microsomal CLint at 1 µM in [7] was determined as 238 µL/min/mg; in data set [17], 28.4 µL/min/mg. Also, the half-life at 1 µM in data set [12] amounted to 0.813 h.

The compound `Cc1[nH]c(C(=O)Nc2ccc(C(=O)NS(C)(=O)=O)cc2N2CCOCC2)c(Cl)c1Cl` showed an IC50 in data set [9] of 0.243 µM. Moreover, the Activity in data set [19] worked out at 37%; in data set [16] it was 94%.

Take `C[C@]12CC[C@H]3[C@@H](CCC4=CC(=O)CC[C@@]43C)[C@@H]1CC[C@@H]2O` [TESTOSTERONE]: the half-life at 1 µM was found to be 0.378 h in data set [2] and 0.137 h in [12]. Besides, the microsomal CLint at 1 µM amounted to 60.9 µL/min/mg in data set [7] and 169 µL/min/mg in data set [17].

On to `Cc1[nH]c(C(=O)Nc2ccc(-c3noc(=O)[nH]3)cc2NC2CCNCC2)c(Cl)c1Cl.Cl`, for which the IC50 in data set [1] turned out to be 1.18 µM; in data set [9], 0.00966 µM; in data set [20], 0.249 µM. The MIC in data set [3], in data set [5], in [6], in data set [8], in [10] and in data set [11] was over 64 µg/mL each time. Also, the minimal inhibitory concentration (MIC) in data set [13], in data set [14], in data set [15] and in data set [18] was over 64 µg/mL throughout. Moreover, the Activity in [16] was found to be 101%.

`Cc1[nH]c(C(=O)Nc2ccc(-n3nn[nH]c3=O)cc2N2CC[C@H](NC(=O)OC(C)(C)C)C2)c(Cl)c1Cl`: in data set [9], the 50% inhibitory concentration (IC50) was 0.212 µM. Moreover, the results for the Activity in data set [19] and in [16] were 72% and 95%, respectively.

As to `Cc1[nH]c(C(=O)Nc2ccc(-c3noc(=O)[nH]3)cc2N2CCCC(CN)C2)c(Cl)c1Cl.Cl` (centres undefined), the IC50 in [1] worked out at 0.0418 µM; in [9], 0.00319 µM; in [20], 0.0241 µM. Besides, the MIC in [3] is 2 µg/mL; in [5], 0.25 µg/mL; in data set [6], 4 µg/mL; in data set [8] it was 2 µg/mL; in data set [10], over 64 µg/mL; in [11], over 64 µg/mL. In addition, the MIC in data set [13] is 4 µg/mL; in data set [14], over 64 µg/mL; in data set [15] it was over 64 µg/mL; in [18], 2 µg/mL. Besides, in data set [4], the viability at 50 µM was found to be 88%. Besides, the Activity in data set [16] was 93%.

As to `Cc1[nH]c(C(=O)Nc2ccc(-c3nnn[nH]3)cc2N2CCCC(CN)C2)c(Cl)c1Cl.Cl` (centres undefined), the IC50 came to 0.0603 µM in [1], 0.00216 µM in data set [9] and 0.035 µM in data set [20]. For the same compound, the MIC in data set [3] was over 64 µg/mL; in data set [5], 8 µg/mL; in [6], 16 µg/mL; in data set [8] it was 64 µg/mL; in [10] it was over 64 µg/mL; in data set [11] it was over 64 µg/mL. The MIC was over 64 µg/mL in [13], over 64 µg/mL in [14], over 64 µg/mL in data set [15] and 16 µg/mL in [18]. Also, the viability at 50 µM in data set [4] stood at 117%. Also, in data set [16], the Activity came out at 91%.

In the case of `Cc1[nH]c(C(=O)Nc2ccc(-c3noc(=O)[nH]3)cc2N2CCCC(N)C2)c(Cl)c1Cl.Cl` (centres undefined), the IC50 in data set [1] is 0.145 µM; in data set [9], 0.00249 µM; in [20] it was 0.0558 µM. Also, the minimal inhibitory concentration (MIC) in [3] is over 64 µg/mL; in data set [5], 8 µg/mL; in data set [6] it was over 64 µg/mL; in [8] it was 16 µg/mL; in [10], over 64 µg/mL; in [11] it was over 64 µg/mL. Moreover, the minimal inhibitory concentration (MIC) in data set [13] is over 64 µg/mL; in data set [14], over 64 µg/mL; in data set [15] it was over 64 µg/mL; in data set [18] it was 8 µg/mL. For the same compound, the viability at 50 µM in [4] is 95%. In data set [16], the Activity was 91%.

Consider `Cc1[nH]c(C(=O)Nc2ccc(-n3nn[nH]c3=O)cc2N2CCC(N)CC2)c(Cl)c1Cl.Cl`, for which the IC50 was 11.5 µM in data set [1], 0.00396 µM in data set [9] and 0.216 µM in [20]. Besides, the minimal inhibitory concentration (MIC) in [3], in [5], in data set [6], in data set [8], in data set [10] and in data set [11] was over 32 µg/mL each time. The minimal inhibitory concentration (MIC) in data set [13], in data set [14], in data set [15] and in data set [18] was over 32 µg/mL in each case. Besides, the Activity in data set [16] came to 103%.

Source of the values: ChEMBL document CHEMBL6071157, “Improved N-phenylpyrrolamide inhibitors of DNA gyrase as antibacterial agents for high-priority bacterial strains” (Eur J Med Chem, 2024).
